From article PMC11372839, “Unraveling the Potential of Vitamin B3-Derived Salts with a Salicylate Anion as Dermal Active Agents for Acne Treatment” (Molecular Pharmaceutics, 2024)
In brackets after ≈: the same amount, converted by molar mass. Several values for one entry are separate records, joined by “and”; a condition that tells them apart may be missing. Equal values may be shown once. Read-outs that look alike come from different tables or passages of the source.

How the values were obtained:
Cutibacterium acnes = experiment: MIC and MBC determination, microdilution method; assay type: cell-based; details: Cutibacterium acnes; for MIC: 48 h, read-out: MIC, C. acnes; for MBC: read-out: MBC, C. acnes
Method: (§1) The antimicrobial activities of the compounds were tested against clinical strains of an aerobic Gram-negative bacterium—Pseudomonas aeruginosa (P. aeruginosa), facultative anaerobic Gram-positive bacteria—Staphylococcus aureus (S. aureus) and Staphylococcus epidermidis (S. epidermidis), anaerobic Gram-positive bacterium—Cutibacterium acnes (C. acnes), and yeast-like fungus—Candida albicans (C. albicans).
(§2) Aerobic and facultative anaerobic bacteria cultures were grown in Brain Heart Infusion broth (BHI, bioMerieux, France) at 35 °C ± 1 °C for 18 h, C. acnes cultures were grown in thioglycolate broth with resazurin (TGB, bioMerieux, France) at 35 ± 1 °C for 48 h, and yeast cultures were grown in Sabouraud dextrose broth (SDB, Merck, Germany) at 35 ± 1 °C for 24 h. After incubation, each culture was diluted in a suitable liquid medium: P. aeruginosa, S. aureus, and S. epidermidis—Mueller–Hinton broth (MHB; Oxoid, UK); C. acnes—TGB; and C. albicans—SDB, to obtain a final suspension containing about 10^6 CFU/mL.
(§3) The microdilution method was employed to determine the compounds’ MIC (Minimal Inhibitory Concentration) and MBC/MFC (Minimal Bactericidal Concentration/Minimal Fungicidal Concentration) against the tested bacterial and fungal strains.
(§4) The compounds were serially diluted (2-fold) in the respective media (P. aeruginosa, S. aureus, and S. epidermidis—MHB, C. acnes—TGB, and C. albicans—SDB in 96-well plates), and the microbial suspensions were added. The compounds were tested in the final concentration range of 4 096 to 0.125 μg/mL, and the final microbial inoculum was approximately 5 ×10^5 CFU/mL. The tests were incubated at 35 °C ± 1 °C for 18 h (P. aeruginosa, S. aureus, and S. epidermidis) or 24 h (C. albicans) or 48 h (C. acnes). C. acnes was incubated in an anaerobic atmosphere using a GENbag anaer (bioMerieux, France). Media (without the strains) added to the different concentrations of tested compounds and media inoculated with microbial suspension were used as a negative control and growth control, respectively.
(§5) The MIC was defined as the lowest concentration at which visible growth was inhibited. MBC and MFC concentrations were determined as an extension of the MIC test. […] The plates were incubated at 35 ± 1 °C for 18–72 h. C. acnes was incubated in an anaerobic atmosphere. The MBC/MFC was defined as the lowest concentration at which no growth was observed. All tests were performed in duplicate.

Pseudomonas aeruginosa = experiment: MIC and MBC determination, microdilution method; assay type: cell-based; details: for MIC: 18 h, read-out: MIC, P. aeruginosa
Method: as §1, §2, §3, §4, §5

[1] = Contact angle of aqueous solutions, sessile drop method on paraffin; assay type: physicochemical; details: aqueous solution, 25 °C
Method: The contact angle (CA) measurements were carried out using a DSA100S analyzer (Krüss, Germany, accuracy ±0.1°), at 25 °C. The determination of the contact angle was based on the sessile drop method, i.e., drops of the analyzed solution were deposited on a solid surface (paraffin). The images of the drops were taken with a CCD camera, digitized, and evaluated using Young–Laplace fitting. The CA was determined as the slope of the tangent line at the contact point between the 3 phases (solution, paraffin surface, and air).
In the case of seborrheic skin, which occurs among many people affected by acne, the epidermis is covered by a hydrophobic lipid layer, which impedes the penetration of active substances, especially those that are well soluble in water. In addition, ensuring proper drug absorption through the skin can also reduce the risk of side effects and increase the effectiveness of therapy.[72] The addition of surfactants, which improve the wettability of hydrophobic surfaces, can be a solution to this problem.[73],[74] […] Wettability analyses of aqueous solutions of the new APIs were carried out on paraffin, whose hydrophobicity is similar to that of the human skin.[75] Experiments were performed at concentrations corresponding to common NA and SAL contents in commercial formulations (0.25–1.00%).[67],[76],[77] Due to low solubilities of 5–7, tests for these salts were performed at concentrations of 0.25, 0.03, and 0.01%, respectively (please see Figure S43 in the Supporting Information).

Candida albicans = experiment: MIC and MFC determination, microdilution method; assay type: cell-based; details: clinical strain, tested 4 096 to 0.125 μg/mL, b = out of range
Method: as §1, §2, §3, §4, §5

Artemia franciscana = experiment: Ecotoxicity toward aquatic life, Artoxkit M immobilization test; assay type: in vivo; details: for EC50: Artemia franciscana; for Class: acute toxicity rating scale by Fish and Wildlife Service
Method: To determine the EC50 parameter for compounds, tests were carried out on marine crustaceans—Artemia franciscana (A. franciscana). The methodology proposed in the Artoxkit M test (MicroBioTests Inc., Gent, Belgium) was developed according to the ASTM E1440-91 standard.
The hatching process was started first. For this purpose, 50 mg of cysts was transferred to the Petri dishes attached to the Artoxkit M set, which were then immersed in 10 mL of artificial seawater with a salinity of 35‰ (a medium for the development of the tested organisms, as well as a solvent for preparing solutions of the tested compounds) and placed at a temperature of 25 °C, with access to light (6000–10,000 lux) for 30 h. Then, 2 h before placing them on the Artoxkit M plates, 20 mg of spirulina was added to cultured artemias. In addition, 1 h before the analysis, the used seawater was oxygenated by passing a stream of air through the solution. To each of the four cells in a given row of a plate from the Artoxkit M kit, 1 mL of solution at the specified concentrations (or the appropriate medium in the case of a control) were introduced. In the first column of cells (a control sample and five selected concentrations), no less than 30 artemias were placed from previously prepared Petri dishes. Then, from the first cell in the first column, artemias were collected at the selected concentration and added to the next three cells in the selected row, 10 organisms per cell. After the organisms were introduced into the appropriate cells, the plates were covered with Parafilm and then closed with a plastic cap. The prepared kit was incubated at 25 °C and protected from light. Number of motionless organisms were counted after 24 and 48 h. Immobilization was then calculated (eq 1) in relation to the number of organisms at the start of the test: [drawing 1] 1
Next, the dependence between the effect and concentration of the tested compounds was plotted, and on this basis, an EC50 value was determined.

[2] = clinical strain, anaerobic, tested 4 096 to 0.125 μg/mL, b = out of range
[3] = immobilization, motionless organisms counted after 24 and 48 h, 25 °C, read-out: EC50
[4] = toxicity range of EC50, read-out: Range

SMILES | MIC (Cutibacterium acnes; [2]) | MBC (Cutibacterium acnes; [2]) | MIC (Pseudomonas aeruginosa; clinical strain, tested 4 096 to 0.125 μg/mL, b = out of range) | MBC (Pseudomonas aeruginosa; clinical strain, tested 4 096 to 0.125 μg/mL, b = out of range, read-out: MBC, P. aeruginosa) | Contact angle ([1]; concentration 0.25%) | MIC (Candida albicans; 24 h, read-out: MIC, C. albicans) | MFC (Candida albicans; read-out: MFC, C. albicans) | EC50 (Artemia franciscana; [3]) | EC50 (Artemia franciscana; [4]) | Class (Artemia franciscana) | Contact angle ([1]; concentration 0.50%) | Contact angle ([1]; concentration 1.00%) | MIC (Cutibacterium acnes) | MBC (Cutibacterium acnes) | MIC (Pseudomonas aeruginosa)
O=C(O)c1ccccc1O [SAL, salicylic acid, reference compound] | 1020 µg/mL (≈ 7.41 mM) | 4100 µg/mL (≈ 29.7 mM) | 2050 µg/mL (≈ 14.8 mM) | 4100 µg/mL (≈ 29.7 mM) | 104.9 ° | 2050 µg/mL (≈ 14.8 mM) | 2050 µg/mL (≈ 14.8 mM) | 300 µg/mL (≈ 2.17 mM) | 100 to 1000 µg/mL (≈ 0.724 to 7.24 mM) | Practically Nontoxic (100-1000) |  |  |  |  | 
CCCCCC[n+]1cccc(C(N)=O)c1.O=C([O-])c1ccccc1O [compound 3] |  |  |  |  | 107.0 ° |  |  | 692 µg/mL | 100 to 1000 µg/mL | Practically Nontoxic (100-1000) | 103.4 ° | 98.51 ° |  |  | 
CCCCCCCC[n+]1cccc(C(N)=O)c1.O=C([O-])c1ccccc1O [compound 4] |  |  |  |  | 94.1 ° and 94 ° |  |  | 360 µg/mL | 100 to 1000 µg/mL | Practically Nontoxic (100-1000) | 79.0 ° | 61.2 ° and 61 ° |  |  | 
CCCCCCCCCC[n+]1cccc(C(N)=O)c1.O=C([O-])c1ccccc1O [compound 5] |  |  |  |  | 50.7 ° |  |  | 138 µg/mL | 100 to 1000 µg/mL | Practically Nontoxic (100-1000) |  |  | 1020 µg/mL | 1020 µg/mL | 1020 µg/mL
